Source: publication PMC11462347 (Heliyon, 2024)

Experiments:
[1] = target: T1, tyrosinase (Agaricus bisporus, UniProt C7FF04); experiment: biochemical
Target sequence in this assay (C7FF04 1-392): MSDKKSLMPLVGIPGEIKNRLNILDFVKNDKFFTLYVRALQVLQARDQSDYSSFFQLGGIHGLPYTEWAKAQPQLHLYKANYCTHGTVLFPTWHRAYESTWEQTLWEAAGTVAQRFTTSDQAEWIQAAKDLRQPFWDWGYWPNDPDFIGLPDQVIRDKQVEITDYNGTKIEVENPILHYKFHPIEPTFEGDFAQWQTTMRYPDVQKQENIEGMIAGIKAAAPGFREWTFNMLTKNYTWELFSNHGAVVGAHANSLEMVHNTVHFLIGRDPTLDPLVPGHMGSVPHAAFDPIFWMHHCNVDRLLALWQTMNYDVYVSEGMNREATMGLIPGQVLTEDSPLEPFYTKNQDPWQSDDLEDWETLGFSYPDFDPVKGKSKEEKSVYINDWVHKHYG

[2] = target: T1, tyrosinase; experiment: Kinetic assay for inhibition action; format: biochemical; settings: for Inhibition type: Lineweaver-Burk plot
Target sequence in this assay (C7FF04 1-392): as above

[3] = target: T1, tyrosinase; experiment: Fluorescence quenching of tyrosinase; format: binding; settings: for Kd: Ka; for quenching mechanism: Ksv decreasing with temperature; for ΔH / ΔS: van't Hoff equation, 298-310 K
Target sequence in this assay (C7FF04 1-392 limits assumed): as the sequence (C7FF04 1-392) above

Compound | IC50 [1] [µM] | Inhibition type [2] | numbers of binding sites (n) [3] | Kq ([3]; 298 K) | Kq ([3]; 304 K) | Kq ([3]; 310 K) | Kd ([3]; T 298 K) [µM] | Kd ([3]; T 304 K) [µM] | quenching mechanism [3] | KSV ([3]; T 298 K) | n (number of binding sites) ([3]; T 298 K) | ΔG ([3]; T 298 K) [kcal/mol] | KSV ([3]; T 304 K) | n (number of binding sites) ([3]; T 304 K) | ΔG ([3]; T 304 K) [kcal/mol] | KSV ([3]; T 310 K) | n (number of binding sites) ([3]; T 310 K) | ΔG ([3]; T 310 K) [kcal/mol] | ΔH [3] [kcal/mol] | ΔS [3] [J mol^−1k^−1] | further results
COc1cc(-c2oc3cc(O)cc(O)c3c(=O)c2O)ccc1O [Isorhamnetin] | 96.4 ± 9.9 | Mixed | ~1 | 0.73 × 10^12 L mol^−1 S^−1 | 0.65 × 10^12 L mol^−1 S^−1 | 0.51 × 10^12 L mol^−1 S^−1 | 5.46 | 5.18 | static | 0.73 ± 0.01 10^4L·mol^−1 | 1.10 | -0.707 ± 0.0024 | 0.65 ± 0.02 10^4L·mol^−1 | 1.12 | -0.7 ± 0.0024 | 0.51 ± 0.01 10^4L·mol^−1 | 1.08 | -0.693 ± 0.0048 | -1.07 ± 0.502 | −5.10 ± 1.19 | Inhibition type ([2]; listed as isorhamnetin): mixed inhibition; Kis ([2]; binding to enzyme-substrate complex): 0.924 ± 0.02 mg/mL; Kd ([3]; T 310 K): 9.8 µM
O=c1c(O)c(-c2ccc(O)cc2)oc2cc(O)cc(O)c12 [Kaempferol] | 82.1 ± 13.7 | Competitive | ~1 | 1.03 × 10^12 L mol^−1 S^−1 | 0.83 × 10^12 L mol^−1 S^−1 | 0.73 × 10^12 L mol^−1 S^−1 | 47.6 | 16.9 | static | 1.03 ± 0.04 10^4L·mol^−1 | 1.08 | -0.717 ± 0.014 | 0.83 ± 0.1 10^4L·mol^−1 | 1.22 | -0.782 ± 0.0072 | 0.73 ± 0.02 10^4L·mol^−1 | 1.27 | -0.846 ± 0.012 | 2.49 ± 0.263 | 45.03 ± 7.1 | Kd ([3]; T 310 K): 12.3 µM
O=c1c(O)c(-c2ccc(O)c(O)c2)oc2cc(O)cc(O)c12 [Quercetin] | – | Competitive | ~2 | 1.44 × 10^12 L mol^−1 S^−1 | 1.17 × 10^12 L mol^−1 S^−1 | 1.13 × 10^12 L mol^−1 S^−1 | – | – | static | 1.44 ± 0.21 10^4L·mol^−1 | 1.44 | -0.923 ± 0.012 | 1.17 ± 0.11 10^4L·mol^−1 | 1.46 | -0.985 ± 0.0048 | 1.13 ± 0.15 10^4L·mol^−1 | 1.61 | -1.05 ± 0.0048 | 2.18 ± 0.311 | 43.56 ± 3.21 | –
